Like-named read-outs stand apart in the source and are kept apart here.
What was measured:
[1] = test system: H9c2(2-1) cells; test: Cell cycle analysis by flow cytometry; assay type: cell-based, rat; conditions: for Cells in G2/M phase / Cells in S phase / Cells in G0/G1 phase: 24 h treatment at equitoxic concentration (IC50); for Cells in G2/M phase: untreated control 8.7 %; for Cells in S phase: untreated control 11 %; for Cells in G0/G1 phase: untreated control 80.1 %; for Cell cycle arrest pattern: 24 h treatment at IC50, data not shown
Description: The cell cycle was analyzed by flow cytometry using a Becton-Dickinson FACSCanto II flow cytometer. H9c2(2-1) cells were seeded at 1 × 10^4 cells/cm^2 in 10 cm^2 culture flasks. After the cells were allowed to grow for 24 h, the medium was replaced and the cells were treated with an equitoxic anthracycline concentration corresponding to IC50. Treatment was performed for 24 h, and then the cells were washed in PBS and trypsinized. After the cells were washed in PBS again, they were fixed in 70 % ethanol and incubated for 1 h on ice. Fixed cells were washed twice in PBS, resuspended in commercially available propidium iodide staining solution and then subjected to flow cytometric assay. The percentages of H9c2(2-1) cells present in G1, S, and G2 phases of the cell cycle after drug treatment were analyzed using FACSDiva 6.1 software.

[2] = test system: H9c2(2-1) cells; test: Cellular uptake (fluorimetric, ethanol/HCl extraction); assay type: cell-based, rat; conditions: 10 μM, 1 h; for Accumulation relative to parent drug (times higher): vs DOX or DRB
Description: Anthracycline uptake was estimated by fluorimetric measurements after the drugs were extracted with an ethanol/HCl mixture as described by Riganti et al.. H9c2(2-1) cells (2 × 10^5) were seeded onto 40 × 11 mm tissue culture dishes for 24 h. Then, the cells were treated in growth medium with 10 μM anthracycline solution at 37 °C for 1 h. After this time, the cells were gently scraped and suspended in 5 ml of ice-cold PBS. The cell suspension aliquots were centrifuged at 1500 rpm for 5 min and then washed twice in ice-cold PBS. Next, cell pellets were collected and resuspended in 2 ml of a 1:1 mixture of ethanol:0.3 M HCl, and the fluorescence intensities of these suspensions were measured at 20 °C using a Perkin-Elmer LS 55 spectrofluorimeter. The optimal excitation and emission wavelengths were 485 and 590 nm, respectively. To estimate the drug concentrations, calibration curves in the concentration range of 0.01–0.5 μM were prepared. Because the fluorescence was quenched slightly in the presence of cells, each point of the calibration curves was measured in the presence of 2 × 10^5 cells suspended in a mixture of ethanol/HCl.

[3] = test system: double-stranded calf thymus DNA; test: Ethidium bromide displacement assay (affinity to DNA); assay type: binding; conditions: for Kapp (apparent DNA binding constant): ethidium bromide displacement, mean of three ± S.D.; for Kapp relative to parent drug (times lower): vs DOX or DRB
Description: The binding of the anthracyclines to double-stranded calf thymus DNA was tested by the ethidium bromide displacement assay. This method is based on the competition between the tested compound and ethidium bromide for DNA intercalation sites. The fluorescence intensity of ethidium bromide increases upon DNA binding. Addition of a compound displacing intercalated ethidium bromide leads to quenching of the fluorescence of the DNA/ethidium bromide complex. The percentage of initial fluorescence was plotted against the concentration of the added compound, and the IC50 value was read. The IC50 value is defined as the concentration of added compound required to reduce the fluorescence of the DNA/ethidium bromide complex to 50 %. IC50 values were then used to calculate the apparent binding constants of the anthracyclines to DNA.

[4] = Cytotoxicity assay (MTT, inhibition of cell proliferation); assay type: cell-based, rat; conditions: rat
Description: (§1) The cytotoxic activity of the drugs was assayed by measuring their inhibitory effects on H9c2(2-1) cell proliferation. To measure the cytotoxicity of doxorubicin, daunorubicin, and their analogs, the tetrazolium dye method was used. Cells were seeded at 1 × 10^4 cells/well in 48-well plates. After 24 h, the cells were incubated with different concentrations of anthracyclines for 72 h in triplicate in a final volume of 1 ml. Then, 50 μl of a sterile aqueous solution of 3-[4,5-dimethylthiazol-2-yl]-2,5-diphenyl-tetrazolium bromide (5 mg/ml) (Sigma-Aldrich) was added to each well for an additional 3 h. The blue formazan precipitate was dissolved in DMSO (Sigma-Aldrich), and the absorbance of solutions was measured at 540 nm. For each experiment, determinations were performed in three replicates. The IC50 values (the anthracycline concentration effective at inhibiting cell growth after exposure to the drug for 72 h) were read from survival curves, which were fitted to an exponential equation using Xact v. 7.2, a statistical software tool by SciLab (Germany).

[5] = design: method as in PMID 16158943; conditions: animal models, compared to DOX and DRB; cited from earlier work
[6] = test system: H9c2(2-1) rat cardiomyoblasts; test: Cytotoxicity assay (MTT, inhibition of cell proliferation); assay type: cell-based; conditions: 72 h
Description: as §1

[7] = H9c2(2-1) rat cardiomyoblast cells, H9c2(2-1) cells, 72 h exposure, MTT, mean of six experiments ± S.D., read-out: Cytotoxicity IC50
[8] = H9c2(2-1), parent DOX or DRB vs analog
[9] = H9c2(2-1) cells, 72 h exposure, MTT, mean of six experiments ± S.D., read-out: Cytotoxicity IC50

COc1cccc2c1C(=O)c1c(O)c3c(c(O)c1C2=O)C[C@@](O)(C(=O)CO)C[C@@H]3O[C@H]1C[C@H](N)[C@H](O)[C@H](C)O1 [DOX, doxorubicin, reference compound]
Cells in G2/M phase [1]: 40.6% | Cells in S phase [1]: 9.0% | Cells in G0/G1 phase [1]: 50.4% | Cellular accumulation higher than DOXM [2]: approximately 30% | Kapp (apparent DNA binding constant) [3]: 18.1 ± 0.41 × 10^5 [M^-1] | IC50 at 72 h [4, 7]: 35 ± 4 nM | Cardiotoxicity in vivo [5]: most cardiotoxic

COc1cccc2c1C(=O)c1c(O)c3c(c(O)c1C2=O)C[C@@](O)(C(C)=O)C[C@@H]3O[C@H]1C[C@H](N=CN2CCOCC2)[C@H](O)[C@H](C)O1 [DRBM]
Cell cycle arrest pattern [1]: S phase arrest | Kapp (apparent DNA binding constant) [3]: 0.64 ± 0.03 × 10^5 [M^-1] | Kapp relative to parent drug (times lower) [3]: approximately 20 times | Cytotoxic activity of the parent compound relative to this analog (times higher) ([6]; rat): 8 times | IC50 at 72 h [4]: 626 ± 18 nM | Cardiotoxicity in vivo [5]: lower cardiotoxicity

COc1cccc2c1C(=O)c1c(O)c3c(c(O)c1C2=O)C[C@@](O)(C(C)=O)C[C@@H]3O[C@H]1C[C@H](N)[C@H](O)[C@H](C)O1 [DRB, daunorubicin, reference compound]
Cell cycle arrest pattern [1]: G2/M arrest | Kapp (apparent DNA binding constant) [3]: 11.7 ± 0.22 × 10^5 [M^-1] | IC50 at 72 h [4, 7]: 76 ± 7 nM | Cardiotoxicity in vivo [5]: most cardiotoxic

COc1cccc2c1C(=O)c1c(O)c3c(c(O)c1C2=O)C[C@@](O)(C(=O)CO)C[C@@H]3O[C@H]1C[C@H](N=CN2CCCCCC2)[C@H](O)[C@H](C)O1 [DOXH]
Cells in G2/M phase [1]: 13.5% | Cells in S phase [1]: 36.4% | Cells in G0/G1 phase [1]: 50.1% | Accumulation relative to DOXM (times higher) [2]: ~2 times | Accumulation relative to parent drug (times higher) [2]: 1.5 times | Kapp (apparent DNA binding constant) [3]: 7.30 ± 0.14 × 10^5 [M^-1] | Kapp relative to parent drug (times lower) [3]: 2.5–2.8 times | Cytotoxic activity of the parent compound relative to this analog (times higher) [6, 8]: ~2.5 times | IC50 at 72 h [4, 9]: 87 ± 7 nM | Cardiotoxicity in vivo [5]: lower cardiotoxicity

COc1cccc2c1C(=O)c1c(O)c3c(c(O)c1C2=O)C[C@@](O)(C(C)=O)C[C@@H]3O[C@H]1C[C@H](N=CN2CCCCCC2)[C@H](O)[C@H](C)O1 [DRBH]
Cell cycle arrest pattern [1]: S phase arrest | Accumulation relative to other tested compounds (times higher) ([2]; other than parent DRB): 5–7 times | Accumulation relative to parent drug (times higher) [2]: more than 1.5 times | Kapp (apparent DNA binding constant) [3]: 4.1 ± 0.08 × 10^5 [M^-1] | Kapp relative to parent drug (times lower) [3]: 2.5–2.8 times | Cytotoxic activity of the parent compound relative to this analog (times higher) [6, 8]: 2 times | IC50 at 72 h [4, 9]: 172 ± 14 nM | Cardiotoxicity in vivo [5]: lower cardiotoxicity

COc1cccc2c1C(=O)c1c(O)c3c(c(O)c1C2=O)C[C@@](O)(C(=O)CO)C[C@@H]3O[C@H]1C[C@H](N=CN2CCOCC2)[C@H](O)[C@H](C)O1 [DOXM]
Cells in G2/M phase [1]: 13.0% | Cells in S phase [1]: 33.5% | Cells in G0/G1 phase [1]: 53.5% | Kapp (apparent DNA binding constant) [3]: 0.90 ± 0.12 × 10^5 [M^-1] | Kapp relative to parent drug (times lower) [3]: approximately 20 times | Cytotoxic activity of the parent compound relative to this analog (times higher) [6, 8]: approximately 4 times | IC50 at 72 h [4, 9]: 138 ± 18 nM | Cardiotoxicity in vivo [5]: lower cardiotoxicity
